From patent US11085056B2, “Transfection complexes and methods of using the same” (MOLECULAR TRANSFER, INC., priority 2015, dated 2021)

How the values were obtained:
HuVec Cells = assay: Transfection of HuVec cells with DOTMA/DOPE/peptide and eGFP plasmid, fluorescent plate reader; type: cell-based; settings: DOTMA/DOPE 1:1 plus peptide with RRRRRRRRRRRR (SEQ ID NO: 109) at n terminus; EF1Alpha eGFP plasmid; 0.01 mL complex; 42 hours
Outline: (§1)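 Cells at 60-70% confluence got DOTMA/DOPE (1:1) mixed with peptides bearing an N-terminal R12 DNA-binding tag, complexed 10 min with EF1α-eGFP plasmid (5 μg/mL in OptiMEM); 0.01 or 0.02 mL complex per well. After 42 h at 37 °C, GFP read by fluorescence plate reader and % transfected cells by microscopy, relative to lipid without peptide.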

HeLa Cells [1] = assay: Transfection of HeLa cells with DOTMA/DOPE/peptide and eGFP plasmid, fluorescent plate reader; type: cell-based; settings: DOTMA/DOPE 1:1 plus peptide with RRRRRRRRRRRR (SEQ ID NO: 109) at n terminus; EF1Alpha eGFP plasmid; 0.01 mL complex; 42 hours
Outline: as §1

C2C12 Cells = assay: Transfection of C2C12 cells with DOTMA/DOPE/peptide and eGFP plasmid, fluorescent plate reader; type: cell-based, mouse; settings: DOTMA/DOPE 1:1 plus peptide with RRRRRRRRRRRR (SEQ ID NO: 109) at n terminus; EF1Alpha eGFP plasmid; 0.02 mL complex; 42 hours
Outline: as §1

Jurkat Cells = assay: Transfection of Jurkat cells with DOTMA/DOPE/peptide and eGFP plasmid, fluorescent plate reader; type: cell-based; settings: DOTMA/DOPE 1:1 plus peptide with RRRRRRRRRRRR (SEQ ID NO: 109) at n terminus; EF1Alpha eGFP plasmid; 0.02 mL complex; 42 hours
Outline: as §1

Human Fibroblast Cells = assay: Transfection of human fibroblast cells with DOTMA/DOPE/peptide and eGFP plasmid, fluorescent plate reader; type: cell-based; settings: DOTMA/DOPE 1:1 plus peptide with RRRRRRRRRRRR (SEQ ID NO: 109) at n terminus; EF1Alpha eGFP plasmid; 0.01 mL complex; 42 hours
Outline: as §1

NL-1 iPS Cells = assay: Transfection of NL-1 iPS cells with DOTMA/DOPE/peptide and eGFP plasmid, fluorescent plate reader; type: cell-based; settings: DOTMA/DOPE 1:1 plus peptide with RRRRRRRRRRRR (SEQ ID NO: 109) at n terminus; EF1Alpha eGFP plasmid; 42 hours
HeLa Cells [2] = assay: Transfection of HeLa cells with DOTMA/SEQ ID NO: 72/peptide compared with Lipofectamine 2000; type: cell-based; settings: fusogenic peptide 0.1 mg/mL
Outline: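 HeLa cells at 60–70% confluence received 0.01 mL of complexes of EF1Alpha eGFP plasmid (5 μg/mL in OptiMEM) with DOTMA/DOPE (1:1) plus R12-linked peptide, with fusogenic peptide at 0.1 mg/mL final. GFP read by fluorescence plate reader and microscopy (% cells transfected) after 42 h at 37 °C.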

some examined cell types = assay: Transfection expression and % cells transfected over the no peptide control; type: cell-based; settings: on some examined cell types
Outline: as §1

[3] = 0.1 μL of DOTMA/SEQ ID NO: 72/Peptide in well of a 96 well plate
[4] = 0.2 μL of DOTMA/SEQ ID NO: 72/Peptide in well of a 96 well plate
[5] = 0.3 μL of DOTMA/SEQ ID NO: 72/Peptide in well of a 96 well plate
[6] = 0.4 μL of DOTMA/SEQ ID NO: 72/Peptide in well of a 96 well plate

Substance	RF (Relative Fluorescence) of Transfection of HuVec Cells (HuVec Cells)	RF (Relative Fluorescence) of Transfection of HeLa Cells (HeLa Cells [1])	RF (Relative Fluorescence) of Transfection of C2C12 Cells (C2C12 Cells)	RF (Relative Fluorescence) of Transfection of Jurkat Cells (Jurkat Cells)	RF (Relative Fluorescence) of Transfection of Human Fibroblast Cells (Human Fibroblast Cells)	RF (Relative Fluorescence) of Transfection of NL-1 iPS Cells (NL-1 iPS Cells)	RF (Relative Fluorescence), DOTMA/SEQ ID NO: 72/Peptide, HeLa Cells (HeLa Cells [2]; [3])	RF (Relative Fluorescence), DOTMA/SEQ ID NO: 72/Peptide, HeLa Cells (HeLa Cells [2]; [4])	RF (Relative Fluorescence), DOTMA/SEQ ID NO: 72/Peptide, HeLa Cells (HeLa Cells [2]; [5])	RF (Relative Fluorescence), DOTMA/SEQ ID NO: 72/Peptide, HeLa Cells (HeLa Cells [2]; [6])	transfection expression and the % cells transfected over the no peptide control (some examined cell types)
342 (TAGSCLRKFSTM; Peptidic transfection agent) [compound 342]	12804	33666	9496	12825	9525	11493	41299	36040	28841	18351	increased
219 (RKRLQVQLSIRT; Peptidic transfection agent) [compound 219]	6237	13721	1346	10762	7389	5770	12135	13841	13531	11712	increased
218 (SPPRRARVT; Peptidic transfection agent) [compound 218]	14827	11179	3706	21451	11230	17049	12686	13103	10151	10081	increased
381 (TAGSCL; Peptidic transfection agent) [compound 381]	17542	22652	8834	10806	9953	9644	34187	37463	27007	20088	increased
357 (SETTVKYIFRLHE; Peptidic transfection agent) [compound 357]	6009	22679	4506	2256	7167	15624	7718	11798	9229	9107	increased
237 (KNSFMALYLSKG; Peptidic transfection agent) [compound 237]	2302	21288	6491	1501	2184	8632	8986	9753	8015	8288	increased
344 (KGHRGF; Peptidic transfection agent) [compound 344]	11867	14415	1678	10160	12704	10895	13315	16387	12564	12511	increased
379 (TAGSCLRKF; Peptidic transfection agent) [compound 379]	14573	27424	3189	7711	8520	6894	50018	47049	39036	26448	increased
268 (GGFLKYTVSYDI; Peptidic transfection agent) [compound 268]	5403	25885	2568	3236	4568	15697	10162	9934	10792	9519	increased
